Where a name gives a salt, the structure may show the parent alone. Read-outs that look alike come from different tables or passages of the source.
Columns and labels:
Assay in all cases: AK assay 384-well format, Prestwick library screening
E. cloacae = format: cell-based, Enterobacter cloacae; settings: 50 μM final drug concentration; for fold induction at 50 µM: Enterobacter cloacae, 3 h
[1] = test system: S. aureus strain USA300-0114; format: cell-based, Staphylococcus aureus; settings: 50 μM final drug concentration; for fold induction at 50 µM: Staphylococcus aureus, USA300, 3 h
P. aeruginosa = format: cell-based, Pseudomonas aeruginosa; settings: 50 μM final drug concentration; for fold induction at 50 µM: Pseudomonas aeruginosa, 3 h
E. faecium = format: cell-based, Enterococcus faecium; settings: 50 μM final drug concentration; for fold induction at 50 µM: Enterococcus faecium, 3 h
E. coli = format: cell-based, Escherichia coli; settings: for fold induction at 50 µM: Escherichia coli, 3 h
[2] = test system: A. baumannii strain 98-37-09; format: cell-based, Acinetobacter baumannii; settings: 50 μM final drug concentration; for fold induction at 50 µM: Acinetobacter baumannii, 983709, 3 h
K. pneumoniae = format: cell-based, Klebsiella pneumoniae; settings: 50 μM final drug concentration; for fold induction at 50 µM: Klebsiella pneumoniae, 3 h
[3] = planktonic E. cloacae, 384-well, […], read-out: AK-based Prestwick Library Screening Results: E. cloacae (increase in extracellular AK activity)
[4] = planktonic S. aureus, 384-well, […], read-out: AK-based Prestwick Library Screening Results: S. aureus (increase in extracellular AK activity)
[5] = planktonic P. aeruginosa, 384-well, […], read-out: AK-based Prestwick Library Screening Results: P. aeruginosa (increase in extracellular AK activity)
[6] = planktonic E. faecium, 384-well, […], read-out: AK-based Prestwick Library Screening Results: E. faecium (increase in extracellular AK activity)
[7] = planktonic A. baumannii, 384-well, […], read-out: AK-based Prestwick Library Screening Results: A. baumannii (increase in extracellular AK activity)
[8] = planktonic K. pneumoniae, 384-well, […], read-out: AK-based Prestwick Library Screening Results: K. pneumoniae (increase in extracellular AK activity)
[9] = cutoff for positive-scoring molecules 3-fold increase
[10] = 50 μM final drug concentration, cutoff for positive-scoring molecules 3-fold increase

## COP(=O)(OC)C(O)C(Cl)(Cl)Cl (stereo not drawn) [Trichlorfon]
E. cloacae; [3]
  fold induction at 50 µM: 1.5
[1]; [4]
  fold induction at 50 µM: 1.1
P. aeruginosa; [5]
  fold induction at 50 µM: 1
E. faecium; [6]
  fold induction at 50 µM: 0.8
E. coli; planktonic E. coli, 50 μM final drug concentration, 384-well, […], read-out: AK-based Prestwick Library Screening Results: E. coli (increase in extracellular AK activity)
  fold induction at 50 µM: 1.2
[2]; [7]
  fold induction at 50 µM: 0.9
K. pneumoniae; [8]
  fold induction at 50 µM: 1.1

## NS(=O)(=O)c1cc2c(cc1Cl)NC(C(Cl)Cl)NS2(=O)=O (stereo not drawn) [Trichlormethiazide]
E. cloacae; planktonic, cutoff for positive-scoring molecules 3-fold increase, read-out: AK-based Prestwick Library Screening Results, E. cloacae (fold increase in extracellular AK activity)
  fold induction at 50 µM: 1.2
[1]; planktonic, cutoff for positive-scoring molecules 3-fold increase, read-out: AK-based Prestwick Library Screening Results, S. aureus (fold increase in extracellular AK activity)
  fold induction at 50 µM: 1.3
P. aeruginosa; planktonic, cutoff for positive-scoring molecules 3-fold increase, read-out: AK-based Prestwick Library Screening Results, P. aeruginosa (fold increase in extracellular AK activity)
  fold induction at 50 µM: 0.8
E. faecium; planktonic, cutoff for positive-scoring molecules 3-fold increase, read-out: AK-based Prestwick Library Screening Results, E. faecium (fold increase in extracellular AK activity)
  fold induction at 50 µM: 1.4
E. coli; 50 μM final drug concentration, planktonic, cutoff for positive-scoring molecules 3-fold increase, read-out: AK-based Prestwick Library Screening Results, E. coli (fold increase in extracellular AK activity)
  fold induction at 50 µM: 0.8
[2]; planktonic, cutoff for positive-scoring molecules 3-fold increase, read-out: AK-based Prestwick Library Screening Results, A. baumannii (fold increase in extracellular AK activity)
  fold induction at 50 µM: 1
K. pneumoniae; planktonic, cutoff for positive-scoring molecules 3-fold increase, read-out: AK-based Prestwick Library Screening Results, K. pneumoniae (fold increase in extracellular AK activity)
  fold induction at 50 µM: 0.8

## CC[N+](CC)(CC)CCC(O)(c1ccccc1)C1CCCCC1.[Cl-] (stereo not drawn) [Tridihexethyl chloride]
E. cloacae; [9]
  AK-based Prestwick Library Screening Results, E. cloacae (fold increase in extracellular AK activity): 0.3
[1]; [9]
  AK-based Prestwick Library Screening Results, S. aureus (fold increase in extracellular AK activity): 0.4
P. aeruginosa; [9]
  AK-based Prestwick Library Screening Results, P. aeruginosa (fold increase in extracellular AK activity): 0.4
E. faecium; [9]
  AK-based Prestwick Library Screening Results, E. faecium (fold increase in extracellular AK activity): 0.8
E. coli; [10]
  AK-based Prestwick Library Screening Results, E. coli (fold increase in extracellular AK activity): 0.4
[2]; [9]
  AK-based Prestwick Library Screening Results, A. baumannii (fold increase in extracellular AK activity): 0.4
K. pneumoniae; [9]
  AK-based Prestwick Library Screening Results, K. pneumoniae (fold increase in extracellular AK activity): 0.4

## CN1CCN(CCCN2c3ccccc3Sc3ccc(C(F)(F)F)cc32)CC1 [Trifluoperazine dihydrochloride]
E. cloacae; planktonic E. cloacae, 384-well, cutoff for positive-scoring molecules 3-fold increase, read-out: AK-based Prestwick Library Screening Results: E. cloacae (increase in extracellular AK activity)
  fold induction at 50 µM: 1.3
[1]; planktonic S. aureus, 384-well, cutoff for positive-scoring molecules 3-fold increase, read-out: AK-based Prestwick Library Screening Results: S. aureus (increase in extracellular AK activity)
  fold induction at 50 µM: 1.2
P. aeruginosa; planktonic P. aeruginosa, 384-well, cutoff for positive-scoring molecules 3-fold increase, read-out: AK-based Prestwick Library Screening Results: P. aeruginosa (increase in extracellular AK activity)
  fold induction at 50 µM: 1.4
E. faecium; planktonic E. faecium, 384-well, cutoff for positive-scoring molecules 3-fold increase, read-out: AK-based Prestwick Library Screening Results: E. faecium (increase in extracellular AK activity)
  fold induction at 50 µM: 1.1
E. coli; planktonic E. coli, 50 μM final drug concentration, 384-well, cutoff for positive-scoring molecules 3-fold increase, read-out: AK-based Prestwick Library Screening Results: E. coli (increase in extracellular AK activity)
  fold induction at 50 µM: 1.7
[2]; planktonic A. baumannii, 384-well, cutoff for positive-scoring molecules 3-fold increase, read-out: AK-based Prestwick Library Screening Results: A. baumannii (increase in extracellular AK activity)
  fold induction at 50 µM: 3.4
K. pneumoniae; planktonic K. pneumoniae, 384-well, cutoff for positive-scoring molecules 3-fold increase, read-out: AK-based Prestwick Library Screening Results: K. pneumoniae (increase in extracellular AK activity)
  fold induction at 50 µM: 1.5

## CN(C)CCCN1c2ccccc2Sc2ccc(C(F)(F)F)cc21 [Triflupromazine hydrochloride]
E. cloacae; [3]
  fold induction at 50 µM: 1.6
[1]; [4]
  fold induction at 50 µM: 1.1
P. aeruginosa; [5]
  fold induction at 50 µM: 1
E. faecium; [6]
  fold induction at 50 µM: 0.9
E. coli; read-out: AK-based Prestwick Library Screening Results: E. coli (increase in extracellular AK activity)
  fold induction at 50 µM: 1.1
[2]; [7]
  fold induction at 50 µM: 1.5
K. pneumoniae; [8]
  fold induction at 50 µM: 1

## O=c1[nH]c(=O)n([C@H]2C[C@H](O)[C@@H](CO)O2)cc1C(F)(F)F [Trifluridine]
E. cloacae; planktonic E. cloacae, […], read-out: AK-based Prestwick library screening result, E. cloacae (fold increase in extracellular AK activity)
  fold induction at 50 µM: 0.7
[1]; planktonic S. aureus, […], read-out: AK-based Prestwick library screening result, S. aureus (fold increase in extracellular AK activity)
  fold induction at 50 µM: 0.7
P. aeruginosa; planktonic P. aeruginosa, […], read-out: AK-based Prestwick library screening result, P. aeruginosa (fold increase in extracellular AK activity)
  fold induction at 50 µM: 0.6
E. faecium; planktonic E. faecium, […], read-out: AK-based Prestwick library screening result, E. faecium (fold increase in extracellular AK activity)
  fold induction at 50 µM: 0.9
E. coli; planktonic E. coli, 50 μM final drug concentration, […], read-out: AK-based Prestwick library screening result, E. coli (fold increase in extracellular AK activity)
  fold induction at 50 µM: 0.9
[2]; planktonic A. baumannii, […], read-out: AK-based Prestwick library screening result, A. baumannii (fold increase in extracellular AK activity)
  fold induction at 50 µM: 1.1
K. pneumoniae; planktonic K. pneumoniae, […], read-out: AK-based Prestwick library screening result, K. pneumoniae (fold increase in extracellular AK activity)
  fold induction at 50 µM: 1.1

## CC(=O)Oc1cc(C(F)(F)F)ccc1C(=O)O [Triflusal]
E. cloacae; planktonic, […], read-out: AK-based Prestwick Library Screening Results, E. cloacae (fold increase in extracellular AK activity)
  fold induction at 50 µM: 1.3
[1]; planktonic, […], read-out: AK-based Prestwick Library Screening Results, S. aureus (fold increase in extracellular AK activity)
  fold induction at 50 µM: 1.4
P. aeruginosa; planktonic, […], read-out: AK-based Prestwick Library Screening Results, P. aeruginosa (fold increase in extracellular AK activity)
  fold induction at 50 µM: 1.2
E. faecium; planktonic, […], read-out: AK-based Prestwick Library Screening Results, E. faecium (fold increase in extracellular AK activity)
  fold induction at 50 µM: 1
E. coli; 50 μM final drug concentration, planktonic, […], read-out: AK-based Prestwick Library Screening Results, E. coli (fold increase in extracellular AK activity)
  fold induction at 50 µM: 1.2
[2]; planktonic, […], read-out: AK-based Prestwick Library Screening Results, A. baumannii (fold increase in extracellular AK activity)
  fold induction at 50 µM: 1
K. pneumoniae; planktonic, […], read-out: AK-based Prestwick Library Screening Results, K. pneumoniae (fold increase in extracellular AK activity)
  fold induction at 50 µM: 0.9

## C[n+]1cccc(C(=O)[O-])c1 [Trigonelline]
E. cloacae; planktonic E. cloacae, cutoff for positive-scoring molecules 3-fold increase, read-out: AK-based Prestwick Library Screening Results, E. cloacae (increase in extracellular AK activity)
  fold induction at 50 µM: 1.2
[1]; planktonic S. aureus, cutoff for positive-scoring molecules 3-fold increase, read-out: AK-based Prestwick Library Screening Results, S. aureus (increase in extracellular AK activity)
  fold induction at 50 µM: 0.8
P. aeruginosa; planktonic P. aeruginosa, cutoff for positive-scoring molecules 3-fold increase, read-out: AK-based Prestwick Library Screening Results, P. aeruginosa (increase in extracellular AK activity)
  fold induction at 50 µM: 0.8
E. faecium; planktonic E. faecium, cutoff for positive-scoring molecules 3-fold increase, read-out: AK-based Prestwick Library Screening Results, E. faecium (increase in extracellular AK activity)
  fold induction at 50 µM: 0.9
E. coli; planktonic E. coli, 50 μM final drug concentration, cutoff for positive-scoring molecules 3-fold increase, read-out: AK-based Prestwick Library Screening Results, E. coli (increase in extracellular AK activity)
  fold induction at 50 µM: 0.9
[2]; planktonic A. baumannii, cutoff for positive-scoring molecules 3-fold increase, read-out: AK-based Prestwick Library Screening Results, A. baumannii (increase in extracellular AK activity)
  fold induction at 50 µM: 0.9
K. pneumoniae; planktonic K. pneumoniae, cutoff for positive-scoring molecules 3-fold increase, read-out: AK-based Prestwick Library Screening Results, K. pneumoniae (increase in extracellular AK activity)
  fold induction at 50 µM: 0.7

## Cl.OC(CCN1CCCCC1)(c1ccccc1)C1CCCCC1 (stereo not drawn) [Trihexyphenidyl-D,L Hydrochloride]
E. cloacae; [9]
  AK-based Prestwick Library Screening Results, E. cloacae (fold increase in extracellular AK activity): 1.5
[1]; [9]
  AK-based Prestwick Library Screening Results, S. aureus (fold increase in extracellular AK activity): 1.4
P. aeruginosa; [9]
  AK-based Prestwick Library Screening Results, P. aeruginosa (fold increase in extracellular AK activity): 1.3
E. faecium; [9]
  AK-based Prestwick Library Screening Results, E. faecium (fold increase in extracellular AK activity): 1.1
E. coli; [10]
  AK-based Prestwick Library Screening Results, E. coli (fold increase in extracellular AK activity): 1.2
[2]; [9]
  AK-based Prestwick Library Screening Results, A. baumannii (fold increase in extracellular AK activity): 1.4
K. pneumoniae; [9]
  AK-based Prestwick Library Screening Results, K. pneumoniae (fold increase in extracellular AK activity): 1.1

From US10004701B2, “Methods and compositions for treating infection” (UNIVERSITY OF ROCHESTER, priority 2012, dated 2018)
